The text below walks through data of US20220184008A1, “MODULATORS OF INTRACELLULAR CHLORIDE CONCENTRATION” (FONDAZIONE ISTITUTO ITALIANO DI TECNOLOGIA, priority 2019, published 2022).

Some results are limits rather than exact numbers.

Series [1] in a line: Solubility in aqueous buffer. Format: physicochemical. The following applies: PBS, pH 7.4, aqueous buffer. The method, then: FIG. 3: Assessment of drug-likeness of a selected compound, compound 3.17. a) Chemicophysical properties of bumetanide and compound 3.17 by LC-MS analysis. b) Comparison between urinary volume of WT mice (C57Bl/6N) two hours after treatment with bumetanide (0.2 mg/kg) and compound 3.17 (0.2 mg/kg). c) Assessment of urinary volume of Ts65Dn mouse model of Down syndrome and WT littermates two hours after treatment with compound 3.17 (0.2 mg/kg). Number in parenthesis: number of analyzed animals. Data represents mean±sem, and they are presented as % of the respective vehicle.
The selected NKCC1 inhibitor compound 3.17 has been evaluated for solubility in aqueous buffers, and stability in plasma and phase I metabolism in vitro (FIG. 3a).

Series [2] relates to valproic acid (VPA)-induced mouse model of autism. Briefly: VPA-induced mouse model of autism (three-chamber, male-female interaction, marble burying, grooming). It counts as in vivo. The following applies: VPA mice, 0.2 mg/kg i.p. seven days. The text has this: Right panel, quantification of the social novelty index in mice treated with vehicle (WT, n=15, VPA, n=10) or 3.17 (WT, n=9, VPA, n=12); two-way ANOVA, Tukey's post hoc test, *P<0.05, **P<0.01. (b) Quantification of the interaction time in mice treated with vehicle (WT, n=15, VPA, n=10) or 3.17 (WT, n=10, VPA, n=11); two-way ANOVA, Tukey's post hoc test, **P<0.01. (c) Quantification of the number of marbles buried by mice treated with vehicle (WT, n=17, VPA, n=17) or 3.17 (WT, n=13, VPA, n=13); two-way ANOVA, Tukey's post hoc test, *P<0.05, **P<0.01. (d) Quantification of grooming time for mice treated with vehicle (WT, n=20, VPA, n=17) or 3.17 (WT, n=13, VPA, n=13); two-way ANOVA on Ranks, Tukey's post hoc test, *P<0.05, **P<0.01.
In vivo assessment of the efficacy of the selected NKCC1 inhibitor in the valproic acid (VPA)-induced mouse model of autism, to assess its ability to rescue altered social interaction. The VPA model was obtained by treating pregnant C57bl/6j dams at 12.5 days of pregnancy with 600 mg/kg (i.p.) of VPA dissolved in PBS. […] As control, the offspring of C57bl/6j dams treated at 12.5 with PBS was used. To assess the efficacy of the compound to restore social deficits, juvenile male offspring of both the VPA- and PBS-treated dams were treated (i.p injection) with 0.2 mg/kg of compound 3.17 dissolved in PBS or 2% DMSO dissolved in PBS as control for seven days. Then, mice were tested for their social ability and for repetitive behaviors in different tests. The social ability was tested in the three-chamber test (Silverman et al., 2010). In the three-chamber test, mice are singularly placed in a three-chamber box with openings between the chambers. After ten minutes of free exploration, a never-before-met intruder is placed under one pencil cup in one chamber and an empty pencil cup was placed in the other chamber. […] The social novelty index is measured as follows: [(time spent with the new intruder−time spent with the old intruder)/(time spent with the new intruder+time spent with the old intruder) %].
The sociability during male-female interaction was then assessed (Drapeau et al., 2018). In this test the tested mouse, after 5 minutes of habituation, is evaluated for its approach to a female intruder mouse that is placed for 5 minutes in the same cage. The time spent interacting is calculated as a measure of male-female social interaction. […] Finally, repetitive behaviors were evaluated in two different tests. […] The repetitive behavior is evaluated as the number of marbles buried in the litter. […] During the test, the mouse is placed in a cylindrical support and after 10 minutes of habituation, the repetitive grooming activity is measured during 5 minutes.

As usually defined, the solubility is the concentration that dissolves in the medium under given conditions. In series [1], `CN(C)S(=O)(=O)c1cc(C(=O)O)ccc1NCCCCCCCC(F)(F)F` [Compound 3.17, 3-(dimethylsulfamoyl)-4-(8,8,8-trifluorooctylamino) benzoic acid] showed a solubility greater than 250 µM. In series [2], the male-female interaction result is recorded as “completely restored” and the “repetitive behaviors (marbles buried, grooming time)” value is given as “completely restored”. Besides, in series [2] (three-chamber test), the sociability index entry was “completely restored” and the social novelty index result is on record as “completely restored”.
